Measured values reported in EP4782453A1 (Beyang Therapeutics Co., Ltd., priority 2023, dated 2025).

The compounds below were run against T1, Menin-MLL (Homo sapiens, UniProt O00255) (assay: Inhibitory activity against Menin-MLL binding (fluorescence polarization)). Details: Menin-MLL IC50, fluorescence polarization; 150 nM His-Menin, 15 nM FITC-MLL; 25°C for 60 min.
T1 construct: His-Menin (M1-L615 end); purchased BIORTUS BP9210
T1 sequence (O00255 1-615 isoform O00255-1): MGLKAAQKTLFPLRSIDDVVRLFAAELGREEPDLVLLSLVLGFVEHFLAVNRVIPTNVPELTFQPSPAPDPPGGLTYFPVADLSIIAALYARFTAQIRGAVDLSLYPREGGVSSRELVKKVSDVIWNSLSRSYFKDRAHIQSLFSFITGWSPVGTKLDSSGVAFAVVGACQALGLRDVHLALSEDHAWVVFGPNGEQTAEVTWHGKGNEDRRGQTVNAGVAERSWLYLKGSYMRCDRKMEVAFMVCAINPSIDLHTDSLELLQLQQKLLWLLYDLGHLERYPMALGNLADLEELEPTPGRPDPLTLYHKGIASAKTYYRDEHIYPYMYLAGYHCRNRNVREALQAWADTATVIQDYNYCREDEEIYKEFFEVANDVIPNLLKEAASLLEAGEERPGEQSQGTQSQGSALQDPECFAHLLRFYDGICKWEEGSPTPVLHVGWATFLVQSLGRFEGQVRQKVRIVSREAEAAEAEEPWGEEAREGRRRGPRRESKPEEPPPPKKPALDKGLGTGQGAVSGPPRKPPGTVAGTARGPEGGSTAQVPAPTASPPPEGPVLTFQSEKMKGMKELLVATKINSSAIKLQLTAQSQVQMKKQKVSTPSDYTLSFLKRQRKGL
Outline: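 Fluorescence polarization competition: compound and 150 nM His-tagged menin (residues M1-L615) sit 15 min at 25 °C in pH 7.5 HEPES buffer with NaCl, DTT and BSA; 15 nM FITC-labelled MLL peptide then binds for 60 min. IC50 fitted sigmoidally from mP values, duplicate wells.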

| Compound | IC50 [nM] |
| --- | --- |
| CCN(C(=O)c1cc(F)ccc1-c1cc(N2CCN(C(=O)[C@@H]3CCC(C)(C)N3)CC2)cn2c(C)nc(Cl)c12)C(C)C [Example 111] | 38 |
| CCN(C(=O)c1cc(F)ccc1-c1cc(C2(F)CCN(C[C@H]3CC[C@H](NS(=O)(=O)CC)CC3)C2)cc2c1cnn2C)C(C)C (some centres unmarked) [Compound 61, N-ethyl-5-fluoro-2-[6-(3-fluoro-1-{[(1r,4r)-4-ethanesulfonamidocyclohexyl]methyl}pyrrolidin-3-yl)-1-methyl-1H-indazol-4-yl]-N-(isopropyl)benzamide] | 58 |
| CCN(C(=O)c1cc(F)ccc1-c1cc(C2(F)CCN(C[C@]3(O)CC[C@@H](NS(=O)(=O)CC)CC3)C2)cc2c1cnn2C)C(C)C (some centres unmarked) [Compound 68, N-ethyl-5-fluoro-2-[6-(3-fluoro-1-{[(1s,4s)-4-ethanesulfonamido-1-hydroxylcyclohexyl]methyl}pyrrolidin-3-yl)-1-methyl-1H-indazol-4-yl]-N-(isopropyl)benzamide] | 298 |
| CCN(C(=O)c1cc(F)ccc1-c1cc(C2CN(C(=O)[C@@H]3CCCCN3)C2)cn2c(C)nc(Cl)c12)C(C)C [Example 126] | 19 |

Same assay, conditions: fluorescence polarization; 150 nM His-Menin, 15 nM FITC-MLL; 25°C for 60 min; read-out: Menin-MLL IC50

| IC50 [nM] | Compound |
| --- | --- |
| 111 | Cc1nc(F)c2c(-c3ccc(F)cc3C(=O)N3CCOC[C@H]3C)cc(C3CN(C[C@H]4CC[C@H](c5ncno5)CC4)C3)cn12 [Example 207-1, (3R)-4-{5-fluoro-2-[1-fluoro-3-methyl-6-(1-{[(1r,4r)-4-(1,2,4-oxadiazol-5-yl)cyclohexyl]methyl}azacyclobutan-3-yl)imidazo[1,5-a]pyridin-8yl]benzoyl}-3-methylmorpholine] |
| 27 | Cc1cncc2c(-c3ccc(F)cc3C(=O)N(C)C(C)C)cc(CC3CN([C@@H](CCCN4CCN(CCO)CC4)C(C)C)C3)n12 [Example 477-2, 5-fluoro-2-[6-({1-[(3S)-6-[4-(2-hydroxylethyl)piperazin-1-yl]-2-methylhexan-3-yl]azacyclobutan-3-yl}methyl)-4-methylpyrrolo[1,2-a]pyrazin-8-yl]-N-methyl-N-(isopropyl)benzamide] |
| 160 | CC[C@H](C1CCN(C(C)=O)CC1)N1CC(c2cc(-c3ccc(F)cc3C(=O)N3CCOC[C@H]3C)c3c(F)nc(C)n3c2)C1 [Example 280-2, 1-{4-[(1R)-1-[3-(1-fluoro-8-{4-fluoro-2-[(3R)-3-methylmorpholin-4-carbonyl]phenyl}-3-methylimidazo[1,5-a]pyridin-6-yl)azacyclobutan-1-yl]propyl]piperidin-1-yl}ethan-1-one] |
| 179 | Cc1ncc2c(-c3ccc(F)cc3C(=O)N3CCOC[C@H]3C)cc(C3CN([C@@H](CCCN4CCN(C)CC4)C(C)C)C3)cn12 [Example 323-1, (3R)-4-[5-fluoro-2-(3-methyl-6-{1-[(3S)-2-methyl-6-(4-methylpiperazin-1-yl)hexan-3-yl]azacyclobutan-3-yl}imidazo[1,5-a]pyridin-8-yl)benzoyl]-3-methylmorpholine] |
| 34 | CCN(C(=O)c1cc(F)ccc1-c1cc(C2CN([C@@H](CC[C@@H]3COCCN3)C(C)C)C2)cn2c(C)ncc12)C(C)C [Example 449-2, N-ethyl-5-fluoro-2-(3-methyl-6-{1-[(3S)-4-methyl-1-[(3R)-morpholin-3-yl]pentan-3-yl]azacyclobutan-3-yl}imidazo[1,5-a]pyridin-8-yl)-N-(isopropyl)benzamide] |
| 2 | CCN(C(=O)c1cc(F)ccc1-c1cc(C2CN([C@@H](C)C3CCN(C(C)=O)CC3)C2)cn2c(C)nc(F)c12)C(C)C [Example 288-2] |

Further lines, the compound ahead of its results:

| Compound | IC50 [nM] |
| --- | --- |
| Cc1nc(F)c2c(-c3ccc(F)cc3C(=O)N3[C@H](C)COC[C@H]3C)cc(C3CN(CC4CCN(C(=O)c5cnoc5)CC4)C3)cn12 [Example 233] | 42 |
| Cc1nc(F)c2c(-c3ccc(F)cc3C(=O)N3CCOC[C@H]3C)cc(C3CN(C(CO)C4CCOCC4)C3)cn12 (stereo partly drawn) [Example 309, 2-[3-(1-fluoro-8-{4-fluoro-2-[(3R)-3-methylmorpholin-4-carbonyl]phenyl}-3-methylimidazo[1,5-a]pyridin-6-yl)azacyclobutan-1-yl]-2-(oxacyclohexan-4-yl)ethan-1-ol] | 60 |
| CCN(C(=O)c1cc(F)ccc1-c1cc(N2CCN(C[C@H]3CC[C@H](NS(=O)(=O)CC)CC3)CC2)cn2c(C)ncc12)C(C)C [Example 84] | 165 |
| Cc1nc(F)c2c(-c3ccc(F)cc3C(=O)N3CCOC[C@H]3C)cc(C3CN([C@@H](C)C4CCN(C(=O)CC(F)F)CC4)C3)cn12 [Example 304] | 8 |
| CCN(C(=O)c1cc(F)ccc1-c1cc(C2CCN(CC3CCCCC3)C2)cn2cncc12)C(C)C (centres unmarked) [Example 44] | 29.5 |
| CCN(C(=O)c1cc(F)ccc1-c1cc(C2CN(C(CCC(=O)O)C(C)C)C2)cn2c(C)ncc12)C(C)C (centres unmarked) [Example 427, 4-[3-(8-{2-[ethyl(isopropyl)aminoformyl]-4-fluorophenyl}-3-methylimidazo[1,5-a]pyridin-6-yl)azacyclobutan-1-yl]-5-methylhexanoic acid] | 120 |
| CC(=O)N1CCN(CCC[C@H](C(C)C)N2CC(c3cc(-c4ccc(F)cc4C(=O)N4CCOC[C@H]4C)c4c(F)nc(C)n4c3)C2)CC12CC2 [Example 340] | 33 |
| C=C1C[C@@H]2CC[C@H]1[C@@H](C(=O)N1CCC(c3cc(-c4ccc(F)cc4C(=O)N(CC)C(C)C)c4cncn4c3)CC1)N2 [Compound 39, N-ethyl-5-fluoro-2-(6-{1-[(1S,3S,4R)-5-methylene-2-azabicyclo[2.2.2]octan-3-carbonyl]piperidin-4-yl}imidazo[1,5-a]pyridin-8-yl)-N-(isopropyl)benzamide] | 137 |
| CCN(C(=O)c1cc(F)ccc1-c1cc(C2CN([C@H](CCCN3CCC[C@H](O)C3)C(C)C)C2)cn2c(C)ncc12)C(C)C [Example 327] | 1.8 |
| CCS(=O)(=O)N[C@@H]1CC[C@@H](CN2CCC(c3cc(-c4ccc(F)cc4C(=O)N(CC(F)F)C(C)C)c4cnc(C)n4c3)C2)OC1 (stereo partly drawn) [Example 163, N-(2,2-difluoroethyl)-2-[6-(1-{[(2S,5R)-5-ethanesulfonamidooxacyclohexan-2-yl]methyl}pyrrolidin-3-yl)-3-methylimidazo[1,5-a]pyridin-8-yl]-5-fluoro-N-(isopropyl)benzamide] | 38 |
| Cc1nc(F)c2c(-c3ccc(F)cc3C(=O)N3CCOC[C@H]3C)cc(C3CN(C(CC[C@@H]4COCCN4C)C(C)C)C3)cn12 (stereo partly drawn) [Example 372, (3R)-4-{5-fluoro-2-[1-fluoro-3-methyl-6-(1-{4-methyl-1-[(3R)-4-methylmorpholin-3-yl]pentan-3-yl}azacyclobutan-3-yl)imidazo[1,5-a]pyridin-8-yl]benzoyl}-3-methylmorpholine] | 32 |
| Cc1nc(F)c2c(-c3ccc(F)cc3C(=O)N3CCOC[C@H]3C)cc(C3CN(C(C)C4CCOCC4)C3)cn12 (stereo partly drawn) [Example 238, (3R)-4-[5-fluoro-2-(1-fluoro-3-methyl-6-{1-[1-(oxacyclohexan-4-yl)ethyl]azacyclobutan-3-yl}imidazo[1,5-a]pyridin-8-yl)benzoyl]-3-methylmorpholine] | 10 |
| CC(=O)N1CCN(CCC[C@H](C(C)C)N2CC(c3cc(-c4ccc(F)cc4C(=O)N4CCOC[C@H]4C)c4c(F)nc(C)n4c3)C2)C[C@H]1C [Example 330, 1-{(2R)-4-[(4R)-4-[3-(1-fluoro-8-{4-fluoro-2-[(3R)-3-methylmorpholin-4-carbonyl]phenyl}-3-methylimidazo[1,5-a]pyridin-6-yl)azacyclobutan-1-yl]-5-methylhexyl]-2-methylpiperazin-1-yl}ethan-1-one] | 16 |
